US20150299188A1, “HETEROCYCLIC COMPOUND” (priority 2012, published 2015)

What follows are compounds tested on FLAP (5-lipoxygenase activating protein) (assay: In vitro binding test: displacement of [3H]-7-chloro-3-(5-((3-fluoropyridin-2-yl)methoxy)-2-methylphenyl)-3,4-dihydroquinazolin-2(1H)-one from Sf9 microsome fractions). Details: Sf9 microsome fractions expressing FLAP; 100% = radioligand binding with 10 μM sodium 3-(3-(tert-butylsulfanyl)-1-(4-chlorobenzyl)-5-isopropyl-1H-indol-2-yl)-2,2-dimethylpropanoate, 0% = DMSO; test compound concentration not given.
Parameters: species or system human and mouse
Method in brief: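 Sf9 microsomes expressing human or mouse FLAP (2 μg/mL) preincubated with compound 10 min at room temperature, then 120 nM tritiated quinazolinone ligand added for 60 min; buffer 100 mM Tris-HCl pH 7.5 with NaCl, EDTA, DTT, glycerol, Tween20. Bound ligand filtered and counted by scintillation; 10 μM indole propanoate defines 100% inhibition, DMSO 0%.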

Compound	inhibitory rate (%)
O=C(c1cc2c(c(C3CC3)n1)CN(c1cc3c(cc1Cl)CCC(c1ncccc1F)O3)C(=O)N2)N1CC(F)C1 (stereo not drawn) [Example 145, 3-(6-chloro-2-(3-fluoropyridin-2-yl)-3,4-dihydro-2H-chromen-7-yl)-5-cyclopropyl-7-((3-fluoroazetidin-1-yl)carbonyl)-3,4-dihydropyrido[4,3-d]pyrimidin-2(1H)-one]	104
O=C1Nc2c(Cl)cnc(Cl)c2CN1c1cc2c(cc1Cl)CCC(c1ncccc1F)O2 (stereo not drawn) [Example 53, 5,8-dichloro-3-(6-chloro-2-(3-fluoropyridin-2-yl)-3,4-dihydro-2H-chromen-7-yl)-3,4-dihydropyrido[4,3-d]pyrimidin-2(1H)-one]	103
O=C1Nc2cc(CO)ccc2CN1c1cc(OCc2c(F)cccc2F)ccc1C(F)(F)F [Example 239, 3-(5-((2,6-difluorobenzyl)oxy)-2-(trifluoromethyl)phenyl)-7-(hydroxymethyl)-3,4-dihydroquinazolin-2(1H)-one]	86
COc1ncc(C(F)(F)F)c2c1NC(=O)N(c1cc3c(cc1Cl)CCC(c1ncccc1F)O3)C2 (stereo not drawn) [Example 108, 3-(6-chloro-2-(3-fluoropyridin-2-yl)-3,4-dihydro-2H-chromen-7-yl)-8-methoxy-5-(trifluoromethyl)-3,4-dihydropyrido[3,4-d]pyrimidin-2(1H)-one]	104
O=C(c1cc2c(c(C3CC3)n1)CN(c1cc3c(cc1Cl)CCC(c1ncccc1F)O3)C(=O)N2)N1CC(O)C1 (stereo not drawn) [Example 112, 3-(6-chloro-2-(3-fluoropyridin-2-yl)-3,4-dihydro-2H-chromen-7-yl)-5-cyclopropyl-7-((3-hydroxyazetidin-1-yl)carbonyl)-3,4-dihydropyrido[4,3-d]pyrimidin-2(1H)-one]	103
O=C1Nc2cc(CO)ccc2CN1c1cc(OCc2c(F)cccc2F)ccc1Cc1ccccc1 [Example 255, 3-(2-benzyl-5-((2,6-difluorobenzyl)oxy)phenyl)-7-(hydroxymethyl)-3,4-dihydroquinazolin-2(1H)-one]	81
Cc1ccc(OCc2c(F)cccc2F)cc1N1Cc2cccc(CO)c2NC1=O [Example 194, 3-(5-((2,6-difluorobenzyl)oxy)-2-methylphenyl)-8-(hydroxymethyl)-3,4-dihydroquinazolin-2(1H)-one]	71
O=C1Nc2cc(-c3nsc(=O)[nH]3)nc(C3CC3)c2CN1c1cc2c(cc1Cl)CCC(c1ncccc1F)O2 (stereo not drawn) [Example 134, 3-(6-chloro-2-(3-fluoropyridin-2-yl)-3,4-dihydro-2H-chromen-7-yl)-5-cyclopropyl-7-(5-oxo-4,5-dihydro-1,2,4-thiadiazol-3-yl)-3,4-dihydropyrido[4,3-d]pyrimidin-2(1H)-one]	91

Other lines, results leading:

inhibitory rate (%)	Compound
107	Cc1cc2c(cc1-n1c(=O)[nH]c3ccccc3c1=O)OC(c1ncccc1F)CC2 (stereo not drawn) [Example 327, 3-(2-(3-fluoropyridin-2-yl)-6-methyl-3,4-dihydro-2H-chromen-7-yl)quinazoline-2,4(1H,3H)-dione]
97	O=C1Nc2cc(CO)ccc2CN1c1cc(OCc2c(F)cccc2F)ccc1CCc1ccccc1 [Example 257, 3-(5-((2,6-difluorobenzyl)oxy)-2-(2-phenylethyl)phenyl)-7-(hydroxymethyl)-3,4-dihydroquinazolin-2(1H)-one]
104	Cc1ccc(OCc2ncccc2F)cc1N1Cc2ccc(C(=O)NC(C)C)cc2NC1=O [Example 270, 3-(5-((3-fluoropyridin-2-yl)methoxy)-2-methylphenyl)-N-isopropyl-2-oxo-1,2,3,4-tetrahydroquinazoline-7-carboxamide]
65	CC(C)(C)Cc1ccc(OCc2c(F)cccc2F)cc1N1Cc2ccc(CO)cc2NC1=O [Example 294, 3-(5-((2,6-difluorobenzyl)oxy)-2-(2,2-dimethylpropyl)phenyl)-7-(hydroxymethyl)-3,4-dihydroquinazolin-2(1H)-one]
